pIC50: −log10 of the molar value.
Legend:
[1] = system: Human promyelocytic leukemia HL-60 cells; experiment: Antiproliferation activity against HL-60 cells (MTT method); format: cell-based; conditions: 48 hour incubation; for pIC50: Homo sapiens, HL-60 cells, read-out: IC50, concentration at which 50% of the proliferation is inhibited
Procedure: Human promyelocytic leukemia HL-60 cells (ATCC CCL-240) were cultured at 37° C. in RPMI 1640 medium (Gibco) containing 10% of fetal calf serum (JRH Bioscience) which had been treated at 56° C. for 30 minutes, and suspended in the same medium at a concentration of 5000 cells/90 μl. Each 90 μl portion of the suspension was distributed into each well of a 96-well plate (Falcon). To the suspension in each well was added 10 μl of one the following samples, and incubated at 37° C. in the presence of 5% CO2. The samples were 2-, 4-, 8-, 16-, 32-, 64- or 128-dilutions of filter-sterilized 200 mM aqueous solution of the compound (2) obtained in Example 1, 50 mM aqueous solution of the compound (7), 50 mM aqueous solution of the compound (9), 100 mM aqueous solution of the compound (11), 100 mM aqueous solution of the compound (14), 20 mM aqueous solution of the compound (17), 12.5 mM aqueous solution of the compound (19) or 12.5 mM aqueous solution of the compound (21) with sterile water, as well as water. After 48 hour from the initiation of the incubation, the numbers of viable cells calculated based on the absorbance measured according to the MTT method as described in “Apoptosis Jikken Protocol” (Syuzyun-sha, Seiichi Tanuma, ed., pp. 156 (1994)) were compared each other.

[2] = system: HL-60 (ATCC CCL-240) cells; experiment: Analysis of DNA fragmentation; format: cell-based, Human; conditions: HL-60 cells, cultured for 24 or 48 hours (time not given)
Procedure: HL-60 (ATCC CCL-240) cells were cultured at 37° C. in RPMI 1640 medium (Bio Whittaker) containing 10% fetal calf serum (JRH) which had been treated at 56° C. for 30 minutes and suspended in RPMI 1640 medium at a concentration of 2.5×10^5 cells/4.5 ml. […] each of aqueous solutions of the compound (2) at a concentration of 10, 50 or 100 mM, the compound (7) at a concentration of 500, 1000 or 1500 μM, the compound (9) at a concentration of 750, 1500 or 3000 μM, the compound (11) at a concentration of 750, 1500 or 3000 μM, or the compound (14) at a concentration of 750, 1500 or 3000 μM was added to 4.5 ml of the suspension. The mixtures were incubated at 37° C. for 24 hours in the presence of 5% CO2. Measurement of apoptotic cells using FACScan as described in Saibo Kogaku, Bessatsu (Cell Technology, Suppl.) Jikken Protocol Series: Apoptosis Jikken Protocol (Experimental Protocol Series: Experimental Protocols for Apoptosis) (Shujun-sha) pp. 129-130 and analysis of DNA fragmentation as described in Bio Manual UP Series: […] Apoptosis Jikken-ho (Bio Manual UP Series: Current Experimental Methods for Apoptosis) (Yodo-sha) pp. 61-63 were carried out using cells cultured for 24 or 48 hours in the same manner as that described above.

[3] = system: IL-10 production in RAW264.7 cells; experiment: Inhibition of LPS-induced IL-10 production (ELISA); format: cell-based, Mouse; conditions: 0.5 ml, 5 μl of 10 mM compound (14), 1 μl of 25 mM compound (7) or 1 μl of 50 mM compound (17), 18 hours after LPS
Procedure: RAW264.7 cells (ATCC TIB 71) were suspended in Dulbecco's modified Eagle's medium (Bio Whittaker, 12-604F) containing 10% fetal calf serum (Gibco) at a concentration of 3×10^5 cells/ml. 0.5 ml of the suspension was added to each well of a 48-well microtiter plate and the plate was incubated at 37° C. overnight in the presence of 5% CO2. 5 μl of a solution containing the compound (14) at a concentration of 10 mM in water, 1 μl of a solution of the compound (7) at a concentration of 25 mM in dimethyl sulfoxide, or 1 μl of a solution of the compound (17) at a concentration of 50 mM in dimethyl sulfoxide was added to the well. After incubation for additional 5 hours, 5 μl of a solution of lipopolysaccharide (LPS, Sigma, L-2012) at a concentration of 100 μg/ml in water was added thereto. After incubation for 18 hours, a culture supernatant was collected. The content of interleukin 10 (IL-10) in the culture supernatant was measured using enzyme immuno sandwich assay (ELISA; Mouse IL-10 ELISA Kit, Endogen). As a control, a group to which the sample or the LPS aqueous solution was not added was provided. All of the measurements were carried out in duplicate.
FIG. 27 illustrates the IL-10 concentrations in culture supernatants obtained by culturing under various culture conditions. The horizontal axis represents the culture conditions and the vertical axis represents the IL-10 concentration (pg/ml).

[4] = Conversion into DGE in culture medium (thin-layer chromatography); format: in vitro ADME; conditions: 10 mM in RPMI 1640 medium with 10% calf serum, 37° C., 4 hours
Procedure: The compound (7) or the compound (9) synthesized in Example 1 was dissolved at a final concentration of 10 mM in RPMI 1640 medium supplemented with 10% calf serum. These samples were allowed to stand at 37° C. for 4 hours. […] each of the samples was then subjected to thin-layer chromatography using chloroform:methanol=5:1 as a developing solvent. Detection was carried out using orcinol-sulfuric acid.
For each sample, a spot with Rf value of 0.5, the same value as that for the compound of general formula IV in which Z is CH2OH and Y is H (L-glycero-1,5-epoxy-1αβ,6-dihydroxy-cis-hex-3-en-2-one, hereinafter referred to as DGE), was detected.

| SMILES | antiproliferation activity against HL-60 cells [1] | pIC50 [1] | final concentration at which DNA fragmentation was observed [2] [µM] | inhibition of LPS-induced IL-10 production [3] | conversion into DGE (spot with Rf value of 0.5, the same value as DGE) [4] |
| --- | --- | --- | --- | --- | --- |
| O=C[C@H](O)[C@H]1OC[C@@H](O)[C@@H]1OC(=O)c1ccccc1 [Compound (7), 4-O-benzoyl-3,6-anhydro-D-galactose] | exhibited antiproliferation activities | 3.98 | ≥ 100 | inhibition of LPS-induced IL-10 production was observed | – |
| OCC1OC(OC2C(CO)OC(OC3C(CO)OC(OC4C(O)COC4C(O)C(O)O)C(O)C3O)C(O)C2O)C(O)C(O)C1O [Compound (14), 4-O-β-maltotoriosyl-3,6-anhydro-D-galactose] | exhibited antiproliferation activities | 3.95 | ≥ 75 | inhibition of LPS-induced IL-10 production was observed | conversion into DGE was also observed |
| O=C[C@H](O)[C@H]1OC[C@@H](O)[C@@H]1OCc1ccccc1 [Compound (17), 4-O-benzyl-3,6-anhydro-D-galactose] | exhibited antiproliferation activities | 3.69 | – | inhibition of LPS-induced IL-10 production was observed | conversion into DGE was also observed |
